From patent US20260306496A1, “CDK2 INHIBITOR PYRAZOLOPYRIMIDINE COMPOUNDS” (ALEKSIA THERAPEUTICS, INC., priority 2023, published 2026)

These molecules were tested against CDK2/CCNE1 (Homo sapiens, UniProt P24941) (assay: CDK2 homogeneous time-resolved fluorescence (HTRF) assay). Settings: 3 nM CDK2/CCNE1, 1 mM ATP, 50 nM ULight-eIF4E-binding protein 1 (Thr37/46) peptide, 60 min at 23° C.; read-out: CDK2/CCNE IC50 >150 nM.
Assay type: biochemical
Method: A CDK homogeneous time-resolved fluorescence (HTRF) assay was used to assess the potency of the compounds described herein.
To an untreated 384-well microtiter plate (ProxiPlate) was added 100 nL 100× test compound in DMSO and 5 μL 2×CDK enzyme in assay buffer (50 mM HEPES, 1 mM EGTA, 10 mM MgCl2, 0.01% Tween 20, 2 mM DTT). The plate was centrifuged at 800 RPM for 1 min then incubated for 20 min at 23° C. 2.5 μL per well of 4×ATP and 2.5 μL 4×ULight™-eIF4E-binding protein 1 (Thr37/46) Peptide) substrate were added to all wells. After addition, the plates were centrifuged at 800 RPM for 1 min. The plates were incubated at 23° C. for 60 min. 5 μL per well 3×EDTA solution were added to each well to stop the reaction. 2.5 μL 7×LANCE Ultra Europium-anti-phospho-eTF4E-binding protein 1 (Thr37/46 antibody) were added to each well and the plate was centrifuged for 1 min at 800 RPM. The plate was incubated for 60 min at 23° C. Fluorescence was read at 340 nm excitation and 665 nm emission on an EnVision 2105 fluorescence reader. The final concentrations of reagents in the activity assay were 3 nM CDK2/CCNE1, 1 mM ATP, 50 nM ULight™-eIF4E-binding protein 1 (Thr37/46) Peptide substrate, 1% DMSO, 10 mM EDTA, and 2 nM LANCE Ultra Europium-anti-phospho-eTF4E-binding protein 1 (Thr37/46).
Dose-response titrations were conducted by using an 11-point, three-fold serial dilution scheme typically starting at 1 μM. Signals were reported as fluorescence units at 665 nm or the ratio of fluorescence units at 665 nm/fluorescence units at 615 nm. Signals are referred to below as “Lance signals”.
Using this assay, the IC50 values of example compounds were determined.

Row | IC50 | SMILES
1 | > 0.15 µM | CS(=O)(=O)c1ccc(Nc2ncc3cnn(C[C@@H]4CCC(=O)N4)c3n2)cc1 [Compound 57, (S)-5-((6-((4-(methylsulfonyl)phenyl)amino)-1H-pyrazolo[3,4-d]pyrimidin-1-yl)methyl)pyrrolidin-2-one]
2 | > 0.15 µM | CS(=O)(=O)c1ccc(Nc2ncc3cnn(CCc4ccccc4)c3n2)cc1 [Compound 62, N-(4-(methylsulfonyl)phenyl)-1-phenethyl-1H-pyrazolo[3,4-d]pyrimidin-6-amine]
3 | > 0.15 µM | CS(=O)(=O)c1ccc(Nc2ncc3cnn(CC4CCOCC4)c3n2)cc1 [Compound 63, N-(4-(methylsulfonyl)phenyl)-1-((tetrahydro-2H-pyran-4-yl)methyl)-1H-pyrazolo[3,4-d]pyrimidin-6-amine]
4 | > 0.15 µM | CN(CCO)[C@H]1CC[C@H](Cn2ncc3cnc(Nc4ccc(S(C)(=O)=O)cc4)nc32)CC1 [Compound 84, 2-(methyl((1r,4r)-4-((6-((4-(methylsulfonyl)phenyl)amino)-1H-pyrazolo[3,4-d]pyrimidin-1-yl)methyl)cyclohexyl)amino)ethan-1-ol]

The remaining lines, values behind:

Row | SMILES | IC50
5 | CS(=O)(=O)c1ccc(Nc2ncc3cnn(CC4CCCCC4)c3n2)cc1C(F)(F)F [Compound 79, 1-(cyclohexylmethyl)-N-(4-(methylsulfonyl)-3-(trifluoromethyl)phenyl)-1H-pyrazolo[3,4-d]pyrimidin-6-amine] | > 0.15 µM
6 | CS(=O)(=O)c1ccc(Nc2ncc3cnn(CC4CCCCC4)c3n2)cc1F [Compound 80, 1-(cyclohexylmethyl)-N-(3-fluoro-4-(methylsulfonyl)phenyl)-1H-pyrazolo[3,4-d]pyrimidin-6-amine] | > 0.15 µM
7 | Cn1cc2cc(-n3ncc4cnc(Nc5ccc(S(C)(=O)=O)cc5)nc43)ccc2n1 [Compound 82, 1-(2-methyl-2H-indazol-5-yl)-N-(4-(methylsulfonyl)phenyl)-1H-pyrazolo[3,4-d]pyrimidin-6-amine] | > 0.15 µM

Same assay, conditions: column 25-150 nM; 3 nM CDK2/CCNE1, 1 mM ATP, 50 nM ULight-eIF4E-binding protein 1 (Thr37/46) peptide, 60 min at 23° C.; read-out: CDK2/CCNE IC50 25-150 nM

Row | IC50 | SMILES
8 | 0.025 to 0.15 µM | CS(=O)(=O)c1ccc(Nc2ncc3cnn([C@@H]4CCC[C@H](C#N)C4)c3n2)cc1 [Compound 52, (1S,3R)-3-(6-((4-(methylsulfonyl)phenyl)amino)-1H-pyrazolo[3,4-d]pyrimidin-1-yl)cyclohexane-1-carbonitrile]
9 | 0.025 to 0.15 µM | CS(=O)(=O)c1ccc(Nc2ncc3cnn(C4CCC(=O)CC4)c3n2)cc1 [Compound 53, 4-(6-((4-(methylsulfonyl)phenyl)amino)-1H-pyrazolo[3,4-d]pyrimidin-1-yl)cyclohexan-1-one]
10 | 0.025 to 0.15 µM | CCN(C)[C@H]1CC[C@@H](Cn2ncc3cnc(Nc4ccc(S(C)(=O)=O)cc4)nc32)CC1 [Compound 75, 1-(((1s,4s)-4-(ethyl(methyl)amino)cyclohexyl)methyl)-N-(4-(methylsulfonyl)phenyl)-1H-pyrazolo[3,4-d]pyrimidin-6-amine]

The next lines start with the molecule.

Row | SMILES | IC50
11 | OCc1cc(Nc2ncc3cnn(CC4CCCCC4)c3n2)ccc1O [Compound 55, 4-((1-(cyclohexylmethyl)-1H-pyrazolo[3,4-d]pyrimidin-6-yl)amino)-2-(hydroxymethyl)phenol] | 0.025 to 0.15 µM
12 | CN(C)[C@H]1CC[C@@H](Cn2ncc3cnc(NC4CCN(S(C)(=O)=O)CC4)nc32)CC1 [Compound 56, 1-(((1S,4S)-4-(dimethylamino)cyclohexyl)methyl)-N-(1-(methylsulfonyl)piperidin-4-yl)-1H-pyrazolo[3,4-d]pyrimidin-6-amine] | 0.025 to 0.15 µM
13 | CS(=O)(=O)c1ccc(Nc2ncc3cnn(-c4ccc5cn[nH]c5c4)c3n2)cc1 [Compound 76, 1-(1H-indazol-6-yl)-N-(4-(methylsulfonyl)phenyl)-1H-pyrazolo[3,4-d]pyrimidin-6-amine] | 0.025 to 0.15 µM
14 | Cn1ncc2cc(-n3ncc4cnc(Nc5ccc(S(C)(=O)=O)cc5)nc43)ccc21 [Compound 81, 1-(1-methyl-1H-indazol-5-yl)-N-(4-(methylsulfonyl)phenyl)-1H-pyrazolo[3,4-d]pyrimidin-6-amine] | 0.025 to 0.15 µM
